One data set concerns Artemia. Briefly: Toxicity against brine shrimp larvae. The class given is organism-based. Conditions: in vivo.
Another data set deals with Human alphaherpesvirus 1. Briefly: Antiviral activity against HSV1. The format is functional, organism-based.
The subject of the next data set is Enterovirus C. Briefly: Antiviral activity against Poliovirus. The format is functional, organism-based.
For a further data set, the system named is Human alphaherpesvirus 2. Briefly: Antiviral activity against HSV2. The format is functional, organism-based.

In brackets after ≈: the same amount, converted by molar mass.

LD50 and EC50 data for six compounds are collected here from ChEMBL document CHEMBL1159286, “New secosteroids from an undescribed gorgonian of the genus Muricella” (J Nat Prod, 1995).

A word on the EC50: it is the concentration that produces a half-maximal response. A low value points to an effect from little substance.

With `Cc1ccc(O)cc1CC[C@@H]1[C@H](O)CC[C@]2(C)[C@@H]([C@H](C)CCCC(C)C)[C@@H](O)C[C@@H]12` [CALICOFEROL B], the LD50 with Artemia was 2.3 ppm.

Take `Cc1ccc(O)cc1CC[C@@H]1C(=O)CC[C@]2(C)[C@@H]([C@H](C)/C=C/C(C)C(C)C)CC[C@@H]12` (some centres undefined) [CALICOFEROL D]: in the data set with Artemia, the LD50 is reported as 37 ppm. Moreover, the EC50 was found to be 1.2 µg/mL (≈ 2.92 µM) in the data set on Human alphaherpesvirus 1, 0.4 µg/mL (≈ 0.974 µM) with Enterovirus C and 1.2 µg/mL (≈ 2.92 µM) with Human alphaherpesvirus 2. As for `Cc1ccc(O)cc1CC[C@@H]1C(=O)CC[C@]2(C)[C@@H]([C@H](C)/C=C/CC(C)C)CC[C@@H]12` [CALICOFEROL A], the LD50 in the data set with Artemia was 1.8 ppm. As for `Cc1ccc(O)cc1CC[C@@H]1C(=O)CC[C@]2(C)[C@@H]([C@H](C)CCCC(C)C)CC[C@@H]12` [CALICOFEROL E], in the data set on Artemia, the LD50 is reported as > 100 ppm.

On to `C=C(CC[C@@H](C)[C@H]1CC[C@H]2[C@H](CCc3cc(O)ccc3C)[C@H](O)CC[C@]12C)C(C)C` [CALICOFEROL C], for which, in the data set on Artemia, the LD50 is > 100 ppm. Same read-out and setting: to `Cc1ccc(O)cc1CC[C@@H]1[C@H](O)CC[C@]2(C)[C@@H]([C@H](C)CCCC(C)C)CC[C@@H]12` [ASTROGORGIADIOL] belongs > 100 ppm.
